This note sets out measurements from patent US20220168322A1, “NOVEL STAT3 INHIBITORS IDENTIFIED BY STRUCTURE-BASED VIRTUAL SCREENING INCORPORATING SH2 DOMAIN FLEXIBILITY” (Board of Regents, The University of Texas System, priority 2018, published 2022).

T1 sequence (P40763 127-722 isoform P40763-3 limits assumed, species assumed): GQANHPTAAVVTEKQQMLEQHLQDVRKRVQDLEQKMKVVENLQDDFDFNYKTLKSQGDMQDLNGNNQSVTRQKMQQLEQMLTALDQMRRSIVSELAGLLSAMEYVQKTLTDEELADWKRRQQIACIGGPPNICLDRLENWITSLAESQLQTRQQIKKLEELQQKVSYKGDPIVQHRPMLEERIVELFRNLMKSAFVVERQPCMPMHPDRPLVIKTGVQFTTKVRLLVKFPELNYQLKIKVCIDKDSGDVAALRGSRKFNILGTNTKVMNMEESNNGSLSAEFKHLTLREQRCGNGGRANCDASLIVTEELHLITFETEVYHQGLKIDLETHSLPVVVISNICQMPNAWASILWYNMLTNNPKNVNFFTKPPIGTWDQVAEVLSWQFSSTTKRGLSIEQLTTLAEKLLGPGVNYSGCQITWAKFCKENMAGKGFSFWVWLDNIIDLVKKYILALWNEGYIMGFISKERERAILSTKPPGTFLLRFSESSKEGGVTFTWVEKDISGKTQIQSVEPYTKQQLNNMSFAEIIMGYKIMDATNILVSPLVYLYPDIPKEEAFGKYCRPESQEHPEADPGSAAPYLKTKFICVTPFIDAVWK

One test has as its target T1, STAT3 (aa 127-722) (Homo sapiens, UniProt P40763).
T1 construct: STAT3 (aa 127-722) at a concentration of 200 nM
Put plainly: SPR assay of STAT3 binding to immobilized EGFR pY1068 phosphododecapeptide. The settings on record: pEGFRp-STAT3 binding (SPR) at pH 8, compound 10 μm. As for the experimental part:
Surface plasmon resonance (SPR) assay of STAT3 binding pY-peptide. STAT3 (aa 127-722) at a concentration of 200 nM in 20 mM Tris buffer (pH 8) was pre-incubated without or with compounds prior to injection onto an SA chip immobilized with phosphorylated and control non-phosphorylated biotinylated EGFR derived dodecapeptides based on sequence surrounding Y1068 (Shao et al., 2004), on a Biacore 3000 biosensor (Biacore inc., Piscataway N.J.) and analyzed as described (Bharadwaj et al., 2016).
Surface Plasmon Resonance (SPR) was performed on the 24 compounds to determine their ability to block binding of purified STAT3 to an immobilized phosphododecapeptide based on EGFR Y1068 (EGFR pY-peptide), as described (Xu et al., 2009).
As for `CCCCOc1ccc(/C=C2\SC(=O)NC2=O)cc1OCC` [SPEC-20], the “% of max binding at 10 μm” value was found to be 76.7%.
Same read-out and setting: with `CC(C)c1ccc(NC(=O)C2C3C=CC(CC3)C2C(=O)O)cc1` (centres unmarked) [SPEC-65] the figure was 57.5%; with `CS(=O)(=O)c1ccc2nc(NC(=O)c3cccc(Cn4cc(Cl)cn4)c3)sc2c1` [SPEC-66], 57.2%.
On the same count and under the same terms, with `COc1ccc(CCNC(=O)c2cccc(C(=O)NCCc3ccc(OC)c(OC)c3)c2)cc1OC` [SPEC-67] the figure was 64.1%; with `O=C(Nc1ccc(Oc2ccccc2Cl)cc1)C1C2CC3C(OC(=O)C31)C2Br` (centres unmarked) [SPEC-73], 58.5%.
On the same count and under the same terms, with `O=C(O)c1ccc(-c2ccc(/C=C3/NC(=O)N(Cc4ccccc4F)C3=O)o2)cc1Cl` [SPEC-82] the figure was 109.3%.

The same test, now with this note: pEGFRp-STAT3 binding (SPR) at pH 8, compound 100 μm.
In the case of `CCCCOc1ccc(/C=C2\SC(=O)NC2=O)cc1OCC` [SPEC-20], the “% of max binding at 100 μm” value came out at 46.1%.
Consider `CC(C)c1ccc(NC(=O)C2C3C=CC(CC3)C2C(=O)O)cc1` (centres unmarked) [SPEC-65], for which the “% of max binding at 100 μm” value came out at 43.5%.
On the same count and under the same terms, with `CS(=O)(=O)c1ccc2nc(NC(=O)c3cccc(Cn4cc(Cl)cn4)c3)sc2c1` [SPEC-66] the figure was 15.9%; with `COc1ccc(CCNC(=O)c2cccc(C(=O)NCCc3ccc(OC)c(OC)c3)c2)cc1OC` [SPEC-67], 51.3%.
As for `O=C(Nc1ccc(Oc2ccccc2Cl)cc1)C1C2CC3C(OC(=O)C31)C2Br` (centres unmarked) [SPEC-73], the “% of max binding at 100 μm” value turned out to be 31.5%.
Still for that read-out and setting: as for `O=C(O)c1ccc(-c2ccc(/C=C3/NC(=O)N(Cc4ccccc4F)C3=O)o2)cc1Cl` [SPEC-82], the figure is 28.4%.

For the next test, the system named is G-CSF-stimulated pSTAT3. The test can be described thus: Inhibition of G-CSF-stimulated pSTAT3 in Kasumi-1 cells (Luminex, pSTAT3/GAPDH). It is filed as cell-based. Particulars: Kasumi1 cells, single concentration of 10 μM, G-CSF 100 ng/ml; pSTAT3/GAPDH relative to DMSO treated cells. How it is done:
[…] Total protein was assayed for pSTAT3 and GAPDH levels by Luminex. GAPDH-normalized pSTAT3 values were divided by the same for untreated cells and expressed as percentage. These values were plotted as a function of Log [M] compound, and IC50 calculated using GraphPad. Data from representative experiments from at least two repeats is shown.
Luminex bead-based assay. Luminex bead-based assays were used to determine levels of pSTAT3, pSTAT1, pSTAT5, and GAPDH, as described (Bharadwaj et al., 2015). […]
Take `CCCC(NC(=O)c1ccccc1)C(=O)OCC(=O)Nc1nc2ccc(OC)cc2s1` (centres unmarked) [AG-690/15437974]: the “% of Control Stimulated pSTAT3” value was found to be 82%.
With `CC(=O)c1ccc(NC(=O)c2ccc(CSc3nnc(NC(=O)CCc4ccccc4)s3)cc2)cc1` [SPEC-3], the “% of Control Stimulated pSTAT3” value is reported as 77%.
For `Cc1c(C)c2ccc(OCC(=O)Nc3cccc([N+](=O)[O-])c3)c(C)c2oc1=O` [SPEC-9], the “% of Control Stimulated pSTAT3” value was determined as 93%.
Still for that read-out and setting: with `Cc1c(Cl)c(=O)oc2c(C)c(OCc3ccc([N+](=O)[O-])cc3)ccc12` [SPEC-10] the figure was 87%; with `O=C(COc1ccc(/C=C2/SC(=O)N(CC(=O)N3CCN(c4ccccc4)CC3)C2=O)cc1Br)Nc1ccccc1` [SPEC-11], 86%.
On the same count and under the same terms, with `NC(=O)COc1ccc(/C=N/NC(=O)CCCOc2ccc(Cl)cc2Cl)cc1` [SPEC-12] the figure was 75%.
Same read-out and setting: with `O=C(O)COc1ccc(/C=N/NC(=O)C2CCCN2S(=O)(=O)c2ccc(Cl)cc2)cc1` (centres unmarked) [SPEC-13] the figure was 99%; with `N#Cc1ccccc1Sc1ccccc1C(=O)Nc1ccc(OCC(=O)N2CCOCC2)cc1` [SPEC-14], 91%; with `CC(=O)NCCc1ccc(S(=O)(=O)Nc2ccc(C(=O)NCc3ccccc3)cc2)cc1` [SPEC-15], 98%.
As to `CC1=CC(=O)OC2C=C(OCCCCCCOC3=CC4OC(=O)C=C(C)C4C=C3)C=CC12` (centres unmarked) [SPEC-17], the “% of Control Stimulated pSTAT3” value is recorded as 106%.
Still for that read-out and setting: as for `CCCCOc1ccc(/C=C2\SC(=O)NC2=O)cc1OCC` [SPEC-20], the figure is 27%; as for `O=C(CN1C(=O)S/C(=C\c2ccc(-c3cc(C(=O)O)ccc3Cl)o2)C1=O)Nc1ccccc1` [SPEC-23], 114%.
Same read-out and setting: as for `Cc1ccccc1NC(=O)CN1C(=O)S/C(=C/c2ccc(-c3ccc(Cl)c(C(=O)O)c3)o2)C1=O` [SPEC-24], the figure is 105%; as for `COC(=O)CSc1nc2ccc(NC(=O)c3ccccc3C(=O)N3CCN(c4ccccc4)CC3)cc2s1` [SPEC-27], 61%; as for `O=C(CSc1nnc(-c2ccccc2)c(-c2ccccc2)n1)Nc1ccc(S(=O)(=O)Nc2nccs2)cc1` [SPEC-30], 68%.
Take `COc1ccc(CCNC2CC(=O)N(c3ccc(N4C(=O)CC(NCCc5ccc(OC)cc5)C4=O)cc3)C2=O)cc1` (centres unmarked) [SPEC-31]: the “% of Control Stimulated pSTAT3” value is 99%.
The same measure, in the same setting: with `CCOC(=O)COc1ccc(-c2nc3ccccc3s2)cc1OC` [SPEC-33] the figure was 89%; with `C=CCN1C(=O)NC(=O)/C(=C/c2ccc(OCC(=O)Nc3ccc(C)cc3)cc2)C1=O` [SPEC-35], 69%; with `CCOc1ccc(NC(=O)CN2C(=O)S/C(=C/c3ccc(OCC(N)=O)c(OCC)c3)C2=O)cc1` [SPEC-40], 75%.
The same measure, in the same setting: with `COc1cc(C=Nc2cccc(Cl)c2)ccc1OCC(N)=O` [SPEC-41] the figure was 74%; with `O=C(O)c1ccc(-c2ccc(CNCCc3c[nH]c4ccccc34)o2)cc1` [SPEC-42], 118%.
Same read-out and setting: with `O=C(O)c1cccc(-c2ccc(CNCc3ccc4c(c3)OCO4)o2)c1` [SPEC-43] the figure was 96%; with `COc1ccccc1CCNCc1ccc(-c2cccc(C(=O)O)c2)o1` [SPEC-44], 120%.
For `CCC(Sc1nnc(NC(=O)CCc2ccccc2)s1)C(=O)Nc1ccc(C(C)=O)cc1` (centres unmarked) [SPEC-45], the “% of Control Stimulated pSTAT3” value was 113%.
Same read-out and setting: with `CC1=NN(c2ccc(C)cc2)C(=O)/C1=C\c1ccc(-c2ccc(C(=O)O)cc2)o1` [SPEC-46] the figure was 71%; with `O=C(NNC(=O)[C@@H]1CCCC[C@@H]1C(=O)O)c1ccc(NC(=O)C2CC2)cc1` [SPEC-47], 104%; with `O=C(CCCCC(=O)NNC(=O)COc1ccc2ccccc2c1)NNC(=O)COc1ccc2ccccc2c1` [SPEC-49], 105%.
As to `CCN(CC)S(=O)(=O)c1ccc(NC(=O)CCCC(=O)Nc2ccc(S(=O)(=O)N(CC)CC)cc2)cc1` [SPEC-51], the “% of Control Stimulated pSTAT3” value amounted to 87%.
Still for that read-out and setting: as for `CC1CCN(S(=O)(=O)c2ccc(NC(=O)CCCC(=O)Nc3ccc(S(=O)(=O)N4CCC(C)CC4)cc3)cc2)CC1` [SPEC-52], the figure is 120%; as for `O=C(CCCCC(=O)Nc1ccc(S(=O)(=O)Nc2ccc(F)cc2)cc1)Nc1ccc(S(=O)(=O)Nc2ccc(F)cc2)cc1` [SPEC-53], 71%; as for `O=C(CCCCC(=O)Nc1ccc(S(=O)(=O)N2CCCC2)cc1)Nc1ccc(S(=O)(=O)N2CCCC2)cc1` [SPEC-55], 114%.
Same read-out and setting: with `CCN1C(=O)/C(=C/c2ccc(OCC(=O)O)c(OC)c2)SC1=S` [SPEC-59] the figure was 78%.
In the case of `COc1cc(C=C2C(=O)OC(C)(c3ccccc3)OC2=O)ccc1OCc1cccc(C(=O)O)c1` (centres unmarked) [SPEC-60], the “% of Control Stimulated pSTAT3” value was determined as 98%.
The same measure, in the same setting: as for `CC(=O)N1CCc2nc(SCC(=O)Nc3cccc(C#N)c3)c(C#N)c(C(F)(F)F)c2C1` [SPEC-62], the figure is 108%; as for `CC(=O)c1ccc(NC(=O)NC2CCCCC2)cc1` [SPEC-63], 118%; as for `CC(C)c1ccc(NC(=O)C2C3C=CC(CC3)C2C(=O)O)cc1` (centres unmarked) [SPEC-65], 35%.
Same read-out and setting: as for `CS(=O)(=O)c1ccc2nc(NC(=O)c3cccc(Cn4cc(Cl)cn4)c3)sc2c1` [SPEC-66], the figure is 48%.
For the compound `COc1ccc(/C=N/NC(=O)COc2ccc(Cl)cc2)cc1COc1cccc2cccnc12` [SPEC-69], the “% of Control Stimulated pSTAT3” value is on record as 112%.
Still for that read-out and setting: as for `O=C(Nc1ccc(Oc2ccccc2Cl)cc1)C1C2CC3C(OC(=O)C31)C2Br` (centres unmarked) [SPEC-73], the figure is 38%; as for `O=C(COC(=O)C1C2CC3C(OC(=O)C31)C2Br)c1ccc(Cl)cc1Cl` (centres unmarked) [SPEC-74], 82%; as for `COc1cccc(-c2csc(NC(=O)C3CC(=O)N(c4cccc(Cl)c4)C3)n2)c1` (centres unmarked) [SPEC-75], 55%.
Same read-out and setting: with `COc1ccc(C(=O)COC(=O)c2ccc(NC(=O)CCCC(=O)O)cc2)cc1` [SPEC-77] the figure was 121%; with `CCN1C(=O)N/C(=C/c2ccc(OCc3cccc(C(=O)O)c3)c(Cl)c2)C1=O` [SPEC-79], 79%.
On to `O=C(O)c1ccc(-c2ccc(/C=C3/NC(=O)N(c4ccc(Cl)cc4)C3=O)o2)cc1` [SPEC-80], for which the “% of Control Stimulated pSTAT3” value stood at 89%.
Same read-out and setting: with `O=C(O)c1ccc(-c2ccc(/C=C3/NC(=O)N(Cc4ccccc4F)C3=O)o2)cc1Cl` [SPEC-82] the figure was 27%; with `CCN1C(=O)S/C(=C/c2ccc(OCc3cccc(C(=O)O)c3)c(Br)c2)C1=O` [SPEC-83], 61%; with `CC(=O)c1ccc(NC(=O)CSc2nnc(CNc3ccc(C)cc3C)n2CC2CCCO2)cc1` (centres unmarked) [SPEC-89], 68%.
With `CC(=O)c1ccc(NC(=O)CSc2nnc(COc3ccc([N+](=O)[O-])cc3)n2C)cc1` [SPEC-92], the “% of Control Stimulated pSTAT3” value is given as 51%.
As to `CC(=O)c1ccc(NC(=O)C(C)Oc2ccccc2)cc1` (centres unmarked) [SPEC-94], the “% of Control Stimulated pSTAT3” value is recorded as 97%.
On to `COc1cccc(N=C2SC(C(=O)Nc3ccc(C(=O)O)cc3)CC(=O)N2C)c1` (centres unmarked) [SPEC-95], for which the “% of Control Stimulated pSTAT3” value is given as 104%.
Same read-out and setting: with `O=C(CCN1C(=O)S/C(=C\c2ccc(Cl)cc2)C1=O)Nc1ccc(S(=O)(=O)Nc2nccs2)cc1` [SPEC-97] the figure was 55%; with `CC(=O)c1ccc(NC(=O)CC2S/C(=N\N=C3CCCCCC3)NC2=O)cc1` (centres unmarked) [SPEC-99], 67%; with `CC(=O)c1ccc(NC(=O)CSc2nn3c(SCC(=O)Nc4ccc(C(C)=O)cc4)nnc3s2)cc1` [SPEC-104], 91%.
Still for that read-out and setting: with `O=C(CN1C(=O)S/C(=C/c2ccc(Cl)cc2)C1=O)Nc1ccc(S(=O)(=O)Nc2nccs2)cc1` [SPEC-105] the figure was 86%; with `CN1CCS/C1=C/C=C1\SC(=S)N(CC(=O)O)C1=O` [SPEC-107], 107%.
The same measure, in the same setting: with `COC(=O)CCC(=O)Nc1ccc(Cc2ccc(NC(=O)CCC(=O)OC)cc2)cc1` [SPEC-108] the figure was 98%.
